Values quoted from earlier work as cited in patent US10314922B2, “Trimaleimide linkers and uses thereof” (NewBio Therapeutics, Inc., priority 2015, dated 2019).

Tested on: human carcinoma lines

Which IC50 does the source give for `COc1cccc2c1C(=O)c1c(O)c3c(c(O)c1C2=O)C[C@@](O)(C(=O)CO)C[C@@H]3O[C@H]1C[C@H](N)[C@H](O)[C@H](C)O1` [doxorubicin, Doxorubicin] here?
The IC50 was 100 to 200 nM.
